Structures are written as SMILES.

One series deals with HSD17B13 (Homo sapiens (Human), UniProt Q7Z5P4). The experiment in a line: HSD17B13 enzymatic inhibition assay (150 nM or 50 nM HSD17B13). Type of series: biochemical. Conditions: 50 nM HSD17B13; read-out: Inhibition of 50 nM of HSD17B13 IC50.
A short description of series [1]: Microsome stability assay, human liver microsomes. Type of series: in vitro ADME. Particulars: 1 μM compound, 0.5 mg/mL microsomal protein; for microsomal CLint at 1 h, 1 µM / half-life at 1 h, 1 µM: human, human liver microsomes, pooled, NADPH, 37° C.; for microsomal CLint at 1 h, 1 µM: read-out: Microsome Stability Human liver microsomes Cl; for half-life at 1 h, 1 µM: read-out: Microsome Stability Human liver microsomes T½. The procedure, abridged: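 Compound at 1 μM incubated at 37° C with pooled human or mouse liver microsomes (0.5 mg/mL protein) plus NADPH regenerating system, sampled at 0–60 min; a 60-min no-NADPH incubation also included. Single replicate; LC/MS/MS disappearance from analyte/internal standard peak area ratios, without standard curve.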
(In general: Liver microsomes are vesicles of endoplasmic reticulum, rich in cytochrome P450 enzymes.)

In a further series the target is HSD17B1 (Homo sapiens (Human), UniProt P14061). The experiment in a line: HSD17B1 enzymatic blocking assay. Type of series: biochemical. Conditions: 25 μM Estradiol, 500 μM NAD; read-out: Inhibition of HSD17B1 IC50. The method, then: To screen compounds of the disclosure for their ability to block HSD17B1 function, an enzymatic blocking assay was performed. For the assay, HSD17B1 activity was measured by detecting NADH formation from oxidation of Estradiol using a NADH Glo luminescence assay (Promega, #Cat. No. G9062). […] Compounds were incubated with the enzyme for 30 minutes at room temperature. […] DMSO at a concentration of 0.5% was used as a negative control and a ‘no substrate’ control was used a positive control in the assay. Detection reagent was then added as per manufacturer's instructions, and the plate was subsequently incubated in the dark for 1 hour at room temperature, NADH generated was detected in the luminescence mode on the Envision Perkin Elmer plate reader. The IC50 values were determined using Dotmatics analysis software.

Another series deals with HSD17B2 (Homo sapiens (Human), UniProt P37059). The experiment in a line: HSD17B2 enzymatic blocking assay. Type of series: biochemical. Conditions: 1.8 μM Estradiol, 650 μM NAD; read-out: Inhibition of HSD17B2 IC50. The gist of the method: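 Mammalian-expressed enzyme at 2 ng/μL in 50 mM Tris-HCl pH 7.5 with detergents/BSA, preincubated 15 min at 20° C. with compound (10-point titration). Reaction with 1.8 μM estradiol and 650 μM NAD ran 45 min at 20° C.; NADH measured by NADH-Glo luminescence and IC50 derived.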
HSD17B2, sequence (P37059 other isoform, or with tags, fused parts or gaps): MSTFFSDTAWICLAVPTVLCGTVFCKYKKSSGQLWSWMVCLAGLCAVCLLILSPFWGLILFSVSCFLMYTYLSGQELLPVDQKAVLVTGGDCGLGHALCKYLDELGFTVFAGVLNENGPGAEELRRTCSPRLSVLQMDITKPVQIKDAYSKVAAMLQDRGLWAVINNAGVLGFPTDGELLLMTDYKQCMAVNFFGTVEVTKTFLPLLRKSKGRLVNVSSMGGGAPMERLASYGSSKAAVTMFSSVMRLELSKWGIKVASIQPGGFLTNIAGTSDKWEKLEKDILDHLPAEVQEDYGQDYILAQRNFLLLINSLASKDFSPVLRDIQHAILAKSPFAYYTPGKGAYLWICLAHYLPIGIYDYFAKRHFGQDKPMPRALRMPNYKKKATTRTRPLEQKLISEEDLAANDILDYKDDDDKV

HSD17B1, sequence (P14061 other isoform, or with tags, fused parts or gaps): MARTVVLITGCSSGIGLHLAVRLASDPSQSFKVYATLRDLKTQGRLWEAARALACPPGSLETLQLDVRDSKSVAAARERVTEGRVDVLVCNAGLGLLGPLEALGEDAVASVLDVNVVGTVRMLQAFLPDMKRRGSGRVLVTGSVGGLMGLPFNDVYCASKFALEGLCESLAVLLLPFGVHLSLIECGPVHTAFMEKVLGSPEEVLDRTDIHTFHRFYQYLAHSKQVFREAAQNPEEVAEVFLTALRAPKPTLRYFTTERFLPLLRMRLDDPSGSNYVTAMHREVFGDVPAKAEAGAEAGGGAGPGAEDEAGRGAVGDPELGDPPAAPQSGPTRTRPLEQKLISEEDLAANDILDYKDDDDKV
HSD17B13, sequence (Q7Z5P4 other isoform, or with tags, fused parts or gaps): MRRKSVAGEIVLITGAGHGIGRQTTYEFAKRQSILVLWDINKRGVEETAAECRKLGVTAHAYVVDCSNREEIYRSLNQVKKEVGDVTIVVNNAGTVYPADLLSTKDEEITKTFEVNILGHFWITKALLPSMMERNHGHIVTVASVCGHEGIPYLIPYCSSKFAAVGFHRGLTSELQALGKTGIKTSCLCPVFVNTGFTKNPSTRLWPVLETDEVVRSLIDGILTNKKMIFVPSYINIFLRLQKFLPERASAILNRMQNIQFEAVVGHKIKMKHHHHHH

For `O=C(NC(c1ccccc1)c1ccc(-c2ccccc2)cc1)c1ccc(C(F)(F)F)[nH]c1=O` (stereo not drawn) [Compound 2, N-([1,1′-biphenyl]-4-yl(phenyl)methyl)-2-oxo-6-(trifluoromethyl)-1,2-dihydropyridine-3-carboxamide], the 50% inhibitory concentration (IC50) was 0.74 µM at HSD17B13, above 30 µM on HSD17B1 and 8.02 µM at HSD17B2. Further, in series [1], the “Microsome Stability Human liver microsomes % Remaining @60 min” value is on record as 3.40%. Moreover, in series [1], the microsomal CLint at 1 h, 1 µM came to 110 µL/min/mg. Moreover, the half-life at 1 h, 1 µM in series [1] was found to be 12.6 min.
Consider `Cc1ccccc1C(NC(=O)c1ccc(C(F)(F)F)[nH]c1=O)c1ccccc1` (stereo not drawn) [Compound 5, N-(phenyl(o-tolyl)methyl)-2-oxo-6-(trifluoromethyl)-1,2-dihydropyridine-3-carboxamide], for which, at HSD17B13, the IC50 is 0.85 µM. Also, in series [1], the “Microsome Stability Human liver microsomes % Remaining @60 min” value came out at 16.00%; the microsomal CLint at 1 h, 1 µM was 52 µL/min/mg; the half-life at 1 h, 1 µM is 26.6 min. Further, the IC50 on HSD17B1 was above 30 µM. Besides, the concentration for half-maximal inhibition (IC50) on HSD17B2 turned out to be 15.3 µM.
`Cc1ccc2c(c1)Oc1cc(C)ccc1C2NC(=O)c1cc(N2CCCCC2)c(C(F)(F)F)[nH]c1=O` [Compound 436, N-(3,6-dimethyl-9H-xanthen-9-yl)-2-oxo-5-(piperidin-1-yl)-6-(trifluoromethyl)-1,2-dihydropyridine-3-carboxamide]: the values for the IC50 at HSD17B13, on HSD17B1 and at HSD17B2 were 0.09 µM, 6.19 µM and 27.3 µM, respectively.
The corresponding values for `Cc1ccc2c(c1)Oc1cc(C)ccc1C2NC(=O)c1cc(N2CCOCC2)c(C(F)(F)F)[nH]c1=O` [Compound 438, N-(3,6-dimethyl-9H-xanthen-9-yl)-5-morpholino-2-oxo-6-(trifluoromethyl)-1,2-dihydropyridine-3-carboxamide] are 0.05 µM, 10.7 µM and 23.5 µM.
As for `CSc1cccc(C(NC(=O)c2ccc(C(F)(F)F)[nH]c2=O)c2ccc(C)cc2)c1` (stereo not drawn) [Compound 445, N-((3-(methylthio)phenyl)(p-tolyl)methyl)-2-oxo-6-(trifluoromethyl)-1,2-dihydropyridine-3-carboxamide], the half-maximal inhibitory concentration (IC50) on HSD17B13 amounted to 0.23 µM; on HSD17B1, 14.8 µM; on HSD17B2, 42.9 µM.
Take `Cc1ccc2c(c1)Oc1cc(C)ccc1C2NC(=O)c1cc(C2CCCCC2)c(C(F)(F)F)[nH]c1=O` [Compound 460, 5-cyclohexyl-N-(3,6-dimethyl-9H-xanthen-9-yl)-2-oxo-6-(trifluoromethyl)-1,2-dihydropyridine-3-carboxamide]: the IC50 amounted to 0.03 µM on HSD17B13, 12.9 µM on HSD17B1 and 25 µM at HSD17B2.
For `Cc1ccc2c(c1)Oc1cc(C)ccc1C2NC(=O)c1cc(C2CCOCC2)c(C(F)(F)F)[nH]c1=O` [Compound 461, N-(3,6-dimethyl-9H-xanthen-9-yl)-2-oxo-5-(tetrahydro-2H-pyran-4-yl)-6-(trifluoromethyl)-1,2-dihydropyridine-3-carboxamide] the same measures were 0.04 µM, 7.64 µM and 45.4 µM.
For `Cc1ccc2c(c1)Sc1cc(C)ccc1C2NC(=O)c1cc(-c2ccncc2)c(C(F)(F)F)[nH]c1=O` [Compound 495, N-(3,6-dimethyl-9H-thioxanthen-9-yl)-6-oxo-2-(trifluoromethyl)-1,6-dihydro-[3,4′-bipyridine]-5-carboxamide] the same measures were 0.03 µM, 2.04 µM and 19.7 µM.
As for `Cc1ccc2c(c1)Oc1cc(C)ccc1C2NC(=O)c1cc(-c2cncnc2)c(C(F)(F)F)[nH]c1=O` [Compound 499, N-(3,6-dimethyl-9H-xanthen-9-yl)-2-oxo-5-(pyrimidin-5-yl)-6-(trifluoromethyl)-1,2-dihydropyridine-3-carboxamide], the values for the IC50 on HSD17B13, on HSD17B1 and at HSD17B2 were 0.03 µM, 4.86 µM and 9.8 µM, respectively.
For the compound `Cc1ccc2c(c1)Oc1cc(C)ccc1C2NC(=O)c1cc(Cc2ccccc2)c(C(F)(F)F)[nH]c1=O` [Compound 500, 5-benzyl-N-(3,6-dimethyl-9H-xanthen-9-yl)-2-oxo-6-(trifluoromethyl)-1,2-dihydropyridine-3-carboxamide], the results for the concentration for half-maximal inhibition (IC50) at HSD17B13, at HSD17B1 and on HSD17B2 were 0.02 µM, 2.67 µM and 14.8 µM, respectively.
Take `Cc1ccc2c(c1)Oc1cc(C)ccc1C2NC(=O)c1cc(C2=CCN(C)CC2)c(C(F)(F)F)[nH]c1=O` [Compound 501, N-(3,6-dimethyl-9H-xanthen-9-yl)-1′-methyl-6-oxo-2-(trifluoromethyl)-1,1′,2′,3′,6,6′-hexahydro-[3,4′-bipyridine]-5-carboxamide]: the concentration for half-maximal inhibition (IC50) was 0.34 µM at HSD17B13, above 30 µM on HSD17B1 and 46 µM at HSD17B2.
The corresponding values for `Cc1ccc2c(c1)Oc1cc(C)ccc1C2NC(=O)c1cc(-c2ccncc2)c(C(F)(F)F)[nH]c1=O` [Compound 504, N-(3,6-dimethyl-9H-xanthen-9-yl)-6-oxo-2-(trifluoromethyl)-1,6-dihydro-[3,4′-bipyridine]-5-carboxamide] are 0.06 µM, 19.7 µM and 39.4 µM.
Consider `Cc1ccc2c(c1)Oc1cc(C)ccc1C2NC(=O)c1cc(-c2cnccn2)c(C(F)(F)F)[nH]c1=O` [Compound 508, N-(3,6-dimethyl-9H-xanthen-9-yl)-2-oxo-5-(pyrazin-2-yl)-6-(trifluoromethyl)-1,2-dihydropyridine-3-carboxamide], for which the half-inhibitory concentration (IC50) was determined as 0.02 µM at HSD17B13, 3.3 µM on HSD17B1 and 45.8 µM on HSD17B2.
For `Cc1ccc2c(c1)Oc1cc(C)ccc1C2NC(=O)c1cc(-c2ncccn2)c(C(F)(F)F)[nH]c1=O` [Compound 509, N-(3,6-dimethyl-9H-xanthen-9-yl)-2-oxo-5-(pyrimidin-2-yl)-6-(trifluoromethyl)-1,2-dihydropyridine-3-carboxamide] the same measures were 0.01 µM, 3.48 µM and 11.9 µM.
For `Cc1ccc2c(c1)Oc1cc(C)ccc1C2NC(=O)c1cc(-c2ccccn2)c(C(F)(F)F)[nH]c1=O` [Compound 510, N-(3,6-dimethyl-9H-xanthen-9-yl)-6′-oxo-2′-(trifluoromethyl)-1′,6′ dihydro-[2,3′-bipyridine]-5′-carboxamide] the same measures were 0.02 µM, 2.19 µM and 5.53 µM.
Regarding `C=CCc1cc(C(=O)NC2c3ccc(C)cc3Oc3cc(C)ccc32)c(=O)[nH]c1C(F)(F)F` [Compound 511, 5-allyl-N-(3,6-dimethyl-9H-xanthen-9-yl)-2-oxo-6-(trifluoromethyl)-1,2-dihydropyridine-3-carboxamide], the half-inhibitory concentration (IC50) at HSD17B13 turned out to be 0.05 µM; at HSD17B1, 6.13 µM; on HSD17B2, 16.2 µM.
The corresponding values for `CN1c2ccccc2C(NC(=O)c2ccc(C(F)(F)F)[nH]c2=O)c2ccccc21` [Compound 519, N-(10-methyl-9,10-dihydroacridin-9-yl)-2-oxo-6-(trifluoromethyl)-1,2-dihydropyridine-3-carboxamide] are 1.35 µM, 7.22 µM and above 100 µM.
As for `Cc1ccc2c(c1)Oc1cc(C)ccc1C2NC(=O)c1cc(CCc2ccccc2)c(C(F)(F)F)[nH]c1=O` [Compound 520, N-(3,6-dimethyl-9H-xanthen-9-yl)-2-oxo-5-phenethyl-6-(trifluoromethyl)-1,2-dihydropyridine-3-carboxamide], the concentration for half-maximal inhibition (IC50) came to 0.02 µM on HSD17B13, 13.7 µM on HSD17B1 and 25.3 µM at HSD17B2.
As to `CCCc1cc(C(=O)NC2c3ccc(C)cc3Oc3cc(C)ccc32)c(=O)[nH]c1C(F)(F)F` [Compound 521, N-(3,6-dimethyl-9H-xanthen-9-yl)-2-oxo-5-propyl-6-(trifluoromethyl)-1,2-dihydropyridine-3-carboxamide], the 50% inhibitory concentration (IC50) is 0.02 µM at HSD17B13, 7.42 µM at HSD17B1 and 29.2 µM at HSD17B2.
With `N#Cc1ccc2c(c1)Oc1ccccc1C2NC(=O)c1ccc(C(F)(F)F)[nH]c1=O` (stereo not drawn) [Compound 528, N-(3-cyano-9H-xanthen-9-yl)-2-oxo-6-(trifluoromethyl)-1,2-dihydropyridine-3-carboxamide], the IC50 at HSD17B13 amounted to 0.09 µM; at HSD17B1, 17 µM; on HSD17B2, 23.2 µM.

A word on the IC50: it is the concentration at which inhibition is half-maximal.

Values taken from US11957687B2 (REGENERON PHARMACEUTICALS, INC., priority 2019, dated 2024).
